Experimental data reported in patent US9056136B2, “Weakly basic 2-nitroimidazoles for the non-invasive detection of tissue hypoxia” (Natural Pharmacia International, Inc., priority 2006, dated 2015).
Like-named read-outs stand apart in the source and are kept apart here.

How the values were obtained:
[1] = humans; cited from earlier work
[2] = test system: Chinese hamster V79-4 lung fibroblasts; experiment: pH-dependent binding to anoxic V79-4 cells, ELISA of cell lysates; format: cell-based; settings: for binding (ng/g protein ± SE): anoxic V79 cells, 200 uM, 3 hours, 5% CO2+95% nitrogen
Source text: Weakly basic 2-nitroimidazole hypoxia compounds of the invention are more sensitive detectors of hypoxia in cells at high pH than are 2-nitroimidazoles that lack a weakly basic moiety, such as CCI-103F. pH-dependent binding for weakly basic pimonidazole was compared to that for CCI-103F in Chinese hamster V79-4 lung fibroblasts under conditions of short-term anoxia. The pH range used (6.4 to 7.4) encompasses about 90% of extracellular pHs measured in human tumors. Eagle's minimum essential medium (MEM) containing 4.5 g/L glucose, but no carbonate, was warmed to 37° C. in a warm room and adjusted to pH 6.4, 6.8 and 7.4 by the addition of sodium bicarbonate under a stream of 5% CO2+95% nitrogen. Fetal bovine serum (FBS) was added to produce an Eagle's pH adjusted MEM containing 10% FBS. Attached V79-4 cells were harvested with EDTA-trypsin and diluted in 25 mL of the pH adjusted MEM at a concentration of 3×10^5 cells/mL. To this solution was added an amount of a stock solution of pimonidazole HCl or CCI-103F to produce a final concentration of 200 uM. The cell solution was then incubated under an atmosphere of 5% CO2+95% nitrogen with agitation for 3 hours. Cell lysates were analyzed by ELISA and the data normalized to protein content. The experiments for both markers were performed in triplicate.

V79 cells = settings: cited from earlier work
central nervous system = settings: clinical use, 0.5 g/m2; 750-1000 mg/patient; 50% of the maximally tolerated single dose; cited from earlier work
[3] = test system: spontaneous canine tumors; experiment: immunostaining of hypoxia marker adducts in biopsies of spontaneous canine tumors; format: in vivo, dogs
Source text: Weakly basic 2-nitroimidazole hypoxia compounds of the invention are more efficient at detecting fluctuating hypoxia than are compounds that lack a weakly basic moiety when measured in large spontaneous canine tumors analogous to those occurring in humans. The hydrochloride salt of the weakly basic hypoxia marker, pimonidazole, was given to 12 dogs at a dosage of 0.5 gm/m^2 body surface area. Seven hours later, all 12 dogs received CCI-103F, a marker that lacks a weakly basic moiety. Two to four, widely separated biopsy samples were taken from viable regions in each tumor and immediately placed in cold 10% neutral buffered formalin. The specimens were fixed for 18-24 hours at 4° C. and then transferred into cold 70% ethanol and stored at 4° C. until mounted into paraffin blocks. Sections from formalin-fixed paraffin-embedded biopsy samples were immunostained for pimonidazole and CCI-103F binding using primary rabbit polyclonal antisera to pimonidazole and CCI-103F adducts respectively. Immunostained sections were exhaustively scanned at 400× by means of an Axioskop 50 microscope and Fluar objective and the percent immunostaining for pimonidazole and CCI-103F adducts was measured.

[4] = cited from earlier work

Row | extent of binding relative to CCI-103F within a single tumor ([3]; regions of one canine tumor, FIGS. 1A-1D) | Compound | plasma half-life (t1/2) [1] [h] | binding (ng/g protein ± SE) ([2]; pH 6.4) [ng/g protein] | binding (ng/g protein ± SE) ([2]; pH 6.8) [ng/g protein] | binding (ng/g protein ± SE) ([2]; pH 7.4) [ng/g protein] | Ci/Ce in V79 cells (V79 cells; pH 6.4) | Ci/Ce in V79 cells (V79 cells; pH 6.8) | Ci/Ce in V79 cells (V79 cells; pH 7.4) | central nervous system (CNS) effects (central nervous system) | extent of immunostaining relative to CCI-103F, factor on average ([3]; 12 dogs, pimonidazole HCl 0.5 gm/m^2, CCI-103F seven hours later, paired t test) | pKa [4] | intensity of binding compared with CCI-103F ([2]; pH 6.4 to 7.4, anoxic V79-4 cells)
1 |  | O=C(Cn1ccnc1[N+](=O)[O-])NCC(F)(F)C(F)(F)F [EF5, 2-(2-nitro-1H-imidazol-1-yl)-N-(2,2,3,3-pentafluoropropyl)-acetamide] | 11.7 ± 2.7 |  |  |  |  |  |  |  |  |  | 
2 |  | O=[N+]([O-])c1nccn1CC(O)COC(C(F)(F)F)C(F)(F)F (centres unmarked) [CCI-103F] |  | 90 ± 7 | 118 ± 17 | 125 ± 5 | ~1.0 | ~1.0 | ~1.0 |  |  |  | 
3 |  | COCC(O)Cn1ccnc1[N+](=O)[O-] (centres unmarked) [misonidazole] | 9.3 |  |  |  |  |  |  |  |  |  | 
4 | greatly exceeded it in other regions | O=[N+]([O-])c1nccn1CC(O)CN1CCCCC1 (centres unmarked) [pimonidazole, 1-(2-hydroxy-3-piperidinopropyl)-2-nitroimidazole] | 5.1 ± 0.8 | 144 ± 15 | 293 ± 19 | 363 ± 22 | 1.0 | 1.6 | 3.3 | extremely low frequency of even the mildest of central nervous system (CNS) effects | 1.25 | 8.7 | greater than that for CCI-103F at all pH levels tested
